Source: patent EP2545917B1, “NOVEL EP4 AGONIST” (Kaken Pharmaceutical Co., Ltd., priority 2010, dated 2011)

Legend:
Human IP = molecular target: T1, Human IP (Homo sapiens, UniProt P43119); assay: Receptor affinity, tritium-labeled iloprost binding to membranes of transfected COS-7 cells; details: COS-7 cell membranes
T1 construct: expressed in transfected cells; host or cells: COS-7
Procedure: (§1) PG receptor affinity of compound F and compound J of the present invention was evaluated. Compound F used was one synthesized in Example 9, and compound J was prepared by separating and purifying the compound synthesized in Example 14 with a column (the same preparations were used in the following Examples). COS-7 cells were transfected with the genes of mouse EP4, human EP1-4 or human IP to overexpress the receptor and then the cell membranes were collected. As a labeled ligand, tritium-labeled PGE2 was used for EPs; tritium-labeled iloprost, for IP. The dissociation constant Kd value was obtained and inhibition constant Ki value of each test compound was determined in a conventional method. As a reference control, PGE2 was used for EPs; beraprost sodium (BPS), for IP.

[1] = tested on: dextran sodium sulfate-induced colitis; assay: Dextran sodium sulfate-induced colitis model in mice (C57BL/6); type: in vivo; details: C57BL/6 mice, DSS, oral 0.3 mg/kg once a day
Procedure: Female C57BL/6 mice (6 weeks old, Japan SLC) were purchased, acclimated for 1 week and used for the study. Except the normal group, the mice were allowed to freely drink a 3 or 2 w/v% DSS (MP Biochemicals, Lot No. 5653H and 5464H, respectively) solution for 1 week to induce colitis. BPS at a dose of 0.3 mg/kg and compound F at doses of 0.3 and 1 mg/kg were orally administered once a day, daily, from the start day of DSS drinking (day 0) to one day before autopsy (day 9). To the control group was orally administered a solvent (1 vol% ethanol solution) at 10 mL/kg in the same manner. The consistency of the stool was graded from score 0 to 4, with normal (0), partly loose stool (1), loose stool (2) and diarrhea (4). The blood feces was also graded from score 0 to 4, with normal (0), partly blood feces (1), blood feces (2) and blood feces plus proctorrhagia (4). The sum of both grades was defined as the stool score (maximum 8). Furthermore, the length of the large intestine was measured in the same manner as in Example 23. Six to 10 animals were used for each group, and the results are shown in average ± standard deviation.

Human EP4 [2] = molecular target: T2, Human EP4 (Homo sapiens, UniProt P35408); assay: Receptor affinity, tritium-labeled PGE2 binding to membranes of transfected COS-7 cells
T2 construct: expressed in transfected cells; host or cells: COS-7
T2 sequence (P35408 whole entry): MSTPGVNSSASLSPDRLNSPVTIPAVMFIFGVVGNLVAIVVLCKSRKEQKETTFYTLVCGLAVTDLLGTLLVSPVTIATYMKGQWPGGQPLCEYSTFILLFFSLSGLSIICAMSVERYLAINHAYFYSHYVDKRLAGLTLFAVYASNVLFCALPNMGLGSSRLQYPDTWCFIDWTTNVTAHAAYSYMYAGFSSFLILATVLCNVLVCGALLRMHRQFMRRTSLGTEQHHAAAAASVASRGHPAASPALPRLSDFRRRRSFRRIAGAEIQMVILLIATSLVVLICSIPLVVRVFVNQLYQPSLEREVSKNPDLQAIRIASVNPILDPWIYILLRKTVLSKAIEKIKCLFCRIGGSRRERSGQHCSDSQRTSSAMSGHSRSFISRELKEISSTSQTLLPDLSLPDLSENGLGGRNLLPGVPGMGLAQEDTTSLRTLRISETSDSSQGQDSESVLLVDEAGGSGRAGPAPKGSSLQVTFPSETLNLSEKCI
Procedure: (§2) COS-7 cells were transfected with the genes of mouse EP4, human EP1-4 or human IP to overexpress the receptor and then the cell membranes were collected. […] The dissociation constant Kd value was obtained and inhibition constant Ki value of each test compound was determined in a conventional method.

Human EP3 = molecular target: T3, Human EP3 (Homo sapiens, UniProt P43115); assay: as above
T3 construct: expressed in transfected cells; host or cells: COS-7
T3 sequence (P43115 1-390): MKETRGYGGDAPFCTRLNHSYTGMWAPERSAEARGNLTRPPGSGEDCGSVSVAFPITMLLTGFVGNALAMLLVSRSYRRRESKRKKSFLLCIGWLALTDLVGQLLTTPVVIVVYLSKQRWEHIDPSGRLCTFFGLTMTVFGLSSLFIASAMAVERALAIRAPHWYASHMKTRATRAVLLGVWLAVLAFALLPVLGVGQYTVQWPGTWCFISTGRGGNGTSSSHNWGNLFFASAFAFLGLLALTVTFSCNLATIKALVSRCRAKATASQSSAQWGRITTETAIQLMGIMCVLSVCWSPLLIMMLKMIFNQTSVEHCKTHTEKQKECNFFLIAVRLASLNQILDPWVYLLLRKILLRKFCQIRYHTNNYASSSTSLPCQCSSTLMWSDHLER
Procedure: as §2

[3] = tested on: blood pressure and heart rate; assay: Effect on blood pressure and heart rate in mice; type: in vivo, ICR mice; details: intravenous 0.01 mg/5 mL/kg, isoflurane anesthesia
Procedure: Male ICR mice (5 weeks old, Japan SLC) were purchased, acclimated for 6 days and used for the test. The animals were treated and measured under isoflurane inhalation anesthesia (anesthesia introduced at 2.5%, maintained at 1.8-2.1%), while body temperature was kept at 37°C with a Heat Controller (ATC-402, Unique Medical Co., Ltd.). A catheter for administration of test compounds was inserted into the left femoral vein, and another catheter was inserted into the right femoral artery and connected to a pressure transducer to record each parameter of hemodynamics.
Compound F, the carboxylate form of compound F and BPS were intravenously administered at a dose of 0.01 mg/5 mL/kg, and the effect on the mean blood pressure and heart rate was evaluated with computer software for the analysis of hemodynamics (Fluclet, Dainippon Sumitomo Pharma Co., Ltd.). To the control group was intravenously administered a solvent (1.2% ethanol solution) at 5 mL/kg in the same manner. The results are expressed as a ratio of change in each parameter before and after the drug administration. Three to 6 animals were used for each group, and the results were expressed as average ± standard deviation.

Human EP4 [4] = molecular target: T2, Human EP4; assay: EP4 agonist activity, CRE-LUC reporter gene in transfected COS-7 cells; type: cell-based
Procedure: In brief, human EP4 gene and CRE-LUC reporter gene were transfected into COS-7 cells. The cells were treated with a test compound one day later, and incubated for 3 hr. The cells were washed, a luminescence substrate was added, and the luminescence intensity was measured for the agonist activity.

Human EP2 = molecular target: T4, Human EP2 (Homo sapiens, UniProt P43116); assay: Receptor affinity, tritium-labeled PGE2 binding to membranes of transfected COS-7 cells
T4 construct: expressed in transfected cells; host or cells: COS-7
T4 sequence (P43116 whole entry): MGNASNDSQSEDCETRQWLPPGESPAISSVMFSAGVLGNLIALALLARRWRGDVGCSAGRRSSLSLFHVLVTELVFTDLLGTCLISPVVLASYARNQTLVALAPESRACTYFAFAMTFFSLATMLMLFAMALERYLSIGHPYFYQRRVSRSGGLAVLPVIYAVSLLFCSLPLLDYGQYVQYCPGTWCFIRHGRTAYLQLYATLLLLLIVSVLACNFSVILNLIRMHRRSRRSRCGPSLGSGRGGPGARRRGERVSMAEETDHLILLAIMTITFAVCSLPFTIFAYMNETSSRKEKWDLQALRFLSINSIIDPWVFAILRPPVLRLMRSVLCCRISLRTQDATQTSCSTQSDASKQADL
Procedure: as §1, with “As a labeled ligand, tritium-labeled PGE2 was used for EPs; tritium-labeled iloprost, for IP.” left out, “method.” for “method. As a reference control, PGE2 was used for EPs; beraprost sodium (BPS), for IP.”

[5] = tested on: Human Platelet Aggregation; assay: Inhibitory effect on ADP-induced platelet aggregation in platelet-rich plasma; type: cell-based; details: ADP 10 µmol/L, geometric mean of three volunteers
Procedure: The inhibitory effect of compounds F and J, and carboxylate forms thereof on platelet aggregation was evaluated. The carboxylate forms were prepared by separating and purifying the compound synthesized in Example 15 with a column. Blood was drawn from 3 healthy volunteers using sodium citrate as an anticoagulant, and platelet-rich plasma was prepared. The platelet-rich plasma was treated with physiological saline or test compounds and, 2 min later, platelet aggregation was induced with adenosine diphosphate (ADP, final concentration 10 µmol/L) and recorded with a platelet aggregation measurement apparatus (nephelometry).

Human EP1 = molecular target: T5, Human EP1 (Homo sapiens, UniProt P34995); assay: Receptor affinity, tritium-labeled PGE2 binding to membranes of transfected COS-7 cells
T5 construct: expressed in transfected cells; host or cells: COS-7
T5 sequence (P34995 1-402): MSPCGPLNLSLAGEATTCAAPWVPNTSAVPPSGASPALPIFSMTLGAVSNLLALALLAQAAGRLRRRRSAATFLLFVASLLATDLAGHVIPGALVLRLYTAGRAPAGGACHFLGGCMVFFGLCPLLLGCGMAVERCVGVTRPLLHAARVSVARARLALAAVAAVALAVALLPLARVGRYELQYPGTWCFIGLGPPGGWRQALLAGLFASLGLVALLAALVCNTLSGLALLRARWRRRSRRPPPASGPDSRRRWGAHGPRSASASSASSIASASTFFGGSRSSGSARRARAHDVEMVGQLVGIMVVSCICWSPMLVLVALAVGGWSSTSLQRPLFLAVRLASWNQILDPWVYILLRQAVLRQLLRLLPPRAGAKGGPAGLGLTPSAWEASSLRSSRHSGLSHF
Procedure: as §1

[6] = In vitro metabolic stability: β-oxidation reaction in rat liver mitochondria fraction; type: in vitro ADME; details: parent compound after NADPH-independent β-oxidation reaction, 37°C, 30 min, tested as isomer mixtures, average ± SD of 3 experiments
Procedure: A mixture of the compound F and compound J of the present invention described in Table 1 (F:J = 52:41, synthesized in Example 14), and a mixture of compounds wherein the tetrazole groups at C-1 of compound F and compound J are respectively substituted by carboxylic acid (referred to as carboxylate form, F:J = 54:34, synthesized in Example 15) were tested.
First, a mitochondria fraction was prepared from the rat liver according to the following Reference A. Then, in reference to the method of […] et al. described in the following References B and C, an NADPH-independent β oxidation reaction was studied. The reaction was carried out at 37°C for 30 min, and stopped with a methanol solution containing a suitable internal standard substance. Each compound was quantified by the internal standard method using a high performance liquid chromatography mass spectrometry apparatus (LC-MS/MS). The compound residual ratio after metabolic reaction of compounds F, J and each carboxylate form thereof in rat mitochondria fraction is shown in the following Table 2 in average ± standard deviation of 3 experiments. Table 2 Residual Ratio of Parent Compound after β-Oxidation Reaction

IP-10 = assay: Suppressive effect on cytokine production, whole blood stimulated with lipopolysaccharide, ELISA; type: cell-based; details: human whole blood, indometacin, 48 hr, geometric mean of three volunteers
[7] = Plasma pharmacokinetics after intravenous administration to rats; type: in vivo; details: male, rat
Procedure: To verify the in vivo metabolic stability of the compound of the present invention, plasma pharmacokinetics was evaluated after intravenous administration to rats. Male rats (6 weeks old, body weight 160 - 180 g) were acclimated for 1 week, and the animals diagnosed healthy were used. A mixture of compound F and compound J of the present invention described in Table 1 (F:J = 52:41), and a mixture of carboxylate forms of compound F and compound J (F:J = 54:34), and compound F (synthesized in Example 9) were dissolved in a small amount of ethanol and physiological saline was added to prepare test compound solutions. The test compound solutions were instantaneously administered intravenously at 1 mL/kg from the femoral vein of non-fasting rats under light ether anesthesia. Venous blood was drawn from the tail vein 5, 15, 30, 45, 60, 90 and 120 min after administration. The blood was mixed with heparin and centrifuged (3000 rpm, 4°C, 15 min) to obtain plasma. The plasma compound concentration was determined by the internal standard method using LC-MS/MS. The determination range by this method was from 0.1 to 100 ng/mL. The compound concentrations obtained from each rat were analyzed in a model-independent way using a pharmacokinetics analysis software WinNonlin (ver.3.3), and average ± standard deviation of 3 animals for each group was obtained.

Mouse EP4 = molecular target: T6, Mouse EP4 (Mus musculus, UniProt P32240); assay: Receptor affinity, tritium-labeled PGE2 binding to membranes of transfected COS-7 cells
T6 construct: expressed in transfected cells; host or cells: COS-7
T6 sequence (P32240 whole entry): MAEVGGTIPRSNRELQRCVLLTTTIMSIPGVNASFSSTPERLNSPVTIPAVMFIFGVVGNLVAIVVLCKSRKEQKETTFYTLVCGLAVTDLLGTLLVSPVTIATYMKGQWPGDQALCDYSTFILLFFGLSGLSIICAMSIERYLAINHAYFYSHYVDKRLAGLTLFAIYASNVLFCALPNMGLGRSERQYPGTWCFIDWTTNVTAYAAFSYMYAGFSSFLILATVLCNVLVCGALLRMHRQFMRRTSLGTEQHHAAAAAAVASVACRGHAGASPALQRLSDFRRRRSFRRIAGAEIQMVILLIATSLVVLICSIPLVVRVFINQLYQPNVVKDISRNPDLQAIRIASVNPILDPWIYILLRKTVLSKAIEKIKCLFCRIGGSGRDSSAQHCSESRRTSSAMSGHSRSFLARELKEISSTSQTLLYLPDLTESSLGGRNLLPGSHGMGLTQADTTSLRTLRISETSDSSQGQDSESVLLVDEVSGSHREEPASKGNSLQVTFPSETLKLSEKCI
Procedure: as §1, with “As a labeled ligand, tritium-labeled PGE2 was used for EPs; tritium-labeled iloprost, for IP.” left out, “method.” for “method. As a reference control, PGE2 was used for EPs; beraprost sodium (BPS), for IP.”

TNF-α = assay: Suppressive effect on cytokine production, CD4 positive T cells stimulated with anti-CD3 and anti-CD28 antibody, ELISA; type: cell-based; details: human CD4 positive T cells, anti-CD3/anti-CD28, 24 hr; geometric mean of three volunteers
Procedure: (§3) Blood was collected from 3 healthy volunteers, and CD4 positive T cells were prepared. […] In both cases, the test compound was added 30 min before stimulation.

IL-2 = assay: as above; type: cell-based; details: human CD4 positive T cells, anti-CD3/anti-CD28, 24 hr; geometric mean of three volunteers
Procedure: as §3

T1 sequence (P43119 whole entry): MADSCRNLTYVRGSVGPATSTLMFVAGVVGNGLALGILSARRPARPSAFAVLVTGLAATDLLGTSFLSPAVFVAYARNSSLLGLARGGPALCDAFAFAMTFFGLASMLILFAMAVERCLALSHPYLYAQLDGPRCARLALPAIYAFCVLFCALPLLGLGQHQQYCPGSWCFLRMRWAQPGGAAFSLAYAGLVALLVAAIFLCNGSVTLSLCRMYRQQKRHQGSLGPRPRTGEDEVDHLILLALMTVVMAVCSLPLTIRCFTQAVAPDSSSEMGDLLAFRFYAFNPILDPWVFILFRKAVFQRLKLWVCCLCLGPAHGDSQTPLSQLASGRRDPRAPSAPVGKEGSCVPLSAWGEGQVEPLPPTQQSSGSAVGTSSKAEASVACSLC

SMILES	Ki (Human IP)	effect on stool score [1]	effect on the shortening of the large intestine [1]	Ki (Human EP4 [2])	Ki (Human EP3)	effect on heart rate [3]	maximum decrease ratio of mean blood pressure [3]	EC50 (Human EP4 [4])	Ki (Human EP2)	IC50 [5]	Ki (Human EP1)	Residual ratio [6]	IC50 (IP-10)	affinity for binding to human EP4 higher than that to human IP (Human EP4 [2]; ratio of Ki values)	half-life ([7]; iv, 50 ug/kg)	half-life ([7]; rats, intravenous, summary of Table 3)	Ki (Mouse EP4)	IC50 (TNF-α)	IC50 (IL-2)
CC#CCC(C)[C@H](O)/C=C/[C@@H]1[C@H]2c3cccc(CCCC(=O)O)c3O[C@H]2C[C@H]1O (mixture of isomers) [BPS, beraprost sodium, reference compound]	160 nM	not effective, but rather showed a tendency toward aggravation of the stool score	no effect on the shortening of the large intestine	6150 nM	946 nM	on the increase and remained high even after 10 min	38%	> 1000 nM	4990 nM	36 nM	942 nM	–	–	–	–	–	–	–	–
Cc1cccc([C@H](C)[C@H](O)/C=C/[C@@H]2[C@@H]3[C@H](C[C@H]2O)O/C(=C\CCCc2nnn[nH]2)C3(F)F)c1 [Compound J, 4-[(Z)-(1S,5R,6R,7R)-6-[(1E,3R,4S)-3-hydroxy-4-(m-tolyl)-1-pentenyl]-7-hydroxy-2-oxa-4,4-difluoro-bicyclo[3.3.0]octan-3-ylidene]-1-(tetrazol-5-yl)butane]	3400 nM	–	–	83 nM	1500 nM	–	–	440 nM	5400 nM	2720 nM	4600 nM	90.1±6.9%	102 nM	40 fold	1.28 ± 0.317 h	1 to 2 h	590 nM	89.5 nM	64 nM
CCCCC[C@H](O)/C=C/[C@H]1[C@H](O)CC(=O)[C@@H]1C/C=C\CCCC(=O)O [PGE2, reference compound]	–	–	–	–	–	–	–	–	–	–	2.9 nM	–	–	–	–	–	–	–	0.062 nM
